# Data taken from patent publication US8927594B2, “Compounds from soft coral, method of preparation and pharmaceutical uses thereof” (National Sun Yat-Sen University, priority 2010, dated 2015).
# Assays:
# COX-2 = COX-2 protein expression in LPS-stimulated RAW264.7 macrophage cells, immunoblot analysis; format: cell-based, mouse; conditions: for effect on COX-2 expression with LPS treatment (in words): FIG. 2; for effect on expression of cyclooxygenase-2 of macrophage cells stimulated with LPS (in words, summary): concentration not stated
# Method: (§1) A mouse macrophage cell line, RAW 264.7, purchased from the American Type Culture Collection (ATCC, No TIB-71) was chosen in the in vitro model. The cells were cultured in DMEM (Dulcbecco/s Modified Eagle medium) containing 10% fetal bovine serum (FBS) and penicillin G (100 U/ml) and streptomycin (100 μg/ml) at 37° C. and 5% CO2. When reaching 80% confluence, the cells were subcultured with trypsin. The cells were subjected to an anti-inflammation assay after subcultured for 36 hours. 3×10^6 RAW264.7 cells were cultured in a 10-cm culture dish and administered with lipopolysaccharide (LPS, 0.01 μg/ml; Sigma L2654). After 16 hours, the cells were collected. In an experiment group, the compound represented by formula 3 was added into the culture dish and followed by LPS before 10 minutes.
# (§2) The collected RAW264.7 cells were dissolved with 200 μL of 4° C. lysis buffer (50 mM Tris [pH 7.5], 150 mM NaCl, 1% TritonX-100, 0.1 mM EDTA, 0.1 mM EGTA, 10 μg PMSF, 1 aprotinin, 20 mM NaF, and 0.2 mM Na3VO4). The samples were centrifuged at 25,000 g for 30 minutes at 4° C. for removing the pellet. The supernatant was assayed with Bio-Rad DC protein assay kit (Bio-Rad Laboratories, Hercules, Calif., USA) and the absorbance was read with an ELISA reader (Thermo Electron Corporation, USA) for estimating the protein contents. The calibrated samples with equal volumes were added with a sample buffer (2% SDS, 10% glycerol, 0.1% bromophenol blue, 10% 2-mercaptoethanol, and 50mM Tris) of the same volume. Proteins were separated with 10% SDS-PAGE and transferred to a PVDF membrane ([…], Immobilon-P, Millipore, Bedford, Mass., USA) (1.5 A, 4° C., 2.5 hours). The transferred PVDF membranes were blocked with TTBS (Tris-HCl 20 mM, NaCl 137 mM, pH 7.4 and 0.1% Tween 20) containing 5% skim milk at room temperature for 1 hour and reacted with polyclonal anti-inducible nitric oxide synthase antibody (Transduction Laboratories, Lexington, Ky., USA) or polyclonal anti-cyclooxygenase-2 antibody (Cayman, Ann Arbor, Mich., USA) at room temperature for 3 hours. After washed with TTBS three times, the samples were reacted with HRP-conjugated anti-rabbit IgG antibody (1:2000) at room temperature for 1 hour. After washed with TTBS for three times, an enhanced chemiluminescence detection kit was used for reating with the PVDF membrane and exposed with an X-ray film (Kodak X-OMAT LS, Kodak, Rochester, N.Y., USA) for detecting the protein expression. The relative amount was calculated with Image-Pro plus 4.5 software (Media Cybernetics, Silver Spring, USA). The group added with only LPS was taken as 100%. β-actin (monoclonal antibody, Sigma, St Louis, Mo., USA) was taken as an internal control.
# iNOS = iNOS protein expression in LPS-stimulated RAW264.7 macrophage cells, immunoblot analysis; format: cell-based, mouse; conditions: for effect on expression of iNOS protein relative to control cells stimulated with LPS only (in words): FIG. 2; for effect on expression of inducible nitric oxide synthase of macrophage cells stimulated with LPS (in words, summary): concentration not stated; for levels of iNOS protein relative to control cells stimulated with LPS only: concentration of 10 mM (so in the source), LPS alone = 100%, mean±SEM, n=6
# Method: as §1, §2
# [1] = Cytotoxicity, MTT colorimetric method, Ca9-22; format: cell-based; conditions: human, Ca9-22 cells (gingival carcinoma)
# Method: (§3) Cell lines were purchased from the American Type Culture Collection (ATCC). Cytotoxicity assays were performed using the MTT [3-(4,5-dimethylthiazol-2-yl)-2,5-diphenyltetrazolium bromide] colorimetric method.
# [2] = Cytotoxicity, MTT colorimetric method, MDA-MB-231; format: cell-based; conditions: human, MDA-MB-231 cells (breast carcinoma)
# Method: as §3
# [3] = Cytotoxicity, MTT colorimetric method, A549; format: cell-based; conditions: human, A549 cells (lung carcinoma)
# Method: as §3
# [4] = Cytotoxicity, MTT colorimetric method, Hep G2; format: cell-based; conditions: human, Hep G2 cells (hepatocellular carcinoma)
# Method: as §3
# [5] = Cytotoxicity, MTT colorimetric method, MCF-7; format: cell-based; conditions: human, MCF-7 cells (breast carcinoma)
# Method: as §3
# [6] = Cytotoxicity, MTT colorimetric method, Hep 3B; format: cell-based; conditions: human, Hep 3B cells (hepatocellular carcinoma)
# Method: as §3
# [7] = 10 μM, RAW264.7 cells + LPS, same experimental condition
smiles,measurement,setting,value
"O=C(/C=C/c1ccc(O)c(O)c1)OCCc1ccccc1 [CAPE, caffeic acid phenylethyl ester, reference compound]","level of COX-2, relative intensity (LPS alone = 100%)",COX-2; [7],67.2±13.4%
same,"level of iNOS, relative intensity (LPS alone = 100%)",iNOS; [7],2.5±3.7%
C/C1=C/[C@@H]2[C@@H](C(C)C)CC[C@@](C)(O)[C@@H]2CC/C(C)=C/CC1 [formula 14],effect on COX-2 expression with LPS treatment (in words),"COX-2; 10 μM, RAW264.7 cells + LPS",effectively reduce
same,"effect on expression of cyclooxygenase-2 of macrophage cells stimulated with LPS (in words, summary)",COX-2,effectively reduce
same,effect on expression of iNOS protein relative to control cells stimulated with LPS only (in words),"iNOS; 10 μM, RAW264.7 cells + LPS",significantly reduce
same,"effect on expression of inducible nitric oxide synthase of macrophage cells stimulated with LPS (in words, summary)",iNOS,significantly reduce
C=C1C[C@H]2O[C@H]([C@@H]3[C@@H](C(C)C)[C@H](OC(=O)CC[S+](C)[O-])[C@@H](OC(C)=O)[C@@](C)(O)[C@@H]32)[C@](C)(OC(=O)CCC)CC[C@@H]1O (stereo partly shown) [formula 4],COX-2 expression relative to control cells stimulated with LPS only,"COX-2; concentration of 10 mM (so in the source), RAW264.7 cells + LPS, LPS alone = 100%, mean±SEM, n=6",7.2±2.5%
same,"effect on expression of cyclooxygenase-2 of macrophage cells stimulated with LPS (in words, summary)",COX-2,significantly lowered
same,levels of iNOS protein relative to control cells stimulated with LPS only,iNOS; RAW264.7 cells + LPS,11.3±1.5%
same,"effect on expression of inducible nitric oxide synthase of macrophage cells stimulated with LPS (in words, summary)",iNOS,significantly lowered
CCCC(=O)O[C@]1(C)CCC[C@@](C)([S+](C)[O-])C[C@H]2O[C@@H]1[C@H]1[C@@H]2[C@](C)(OC(C)=O)CC[C@@H]1C(C)C (stereo partly shown) [formula 2],levels of iNOS protein relative to control cells stimulated with LPS only,iNOS; RAW264.7 cells + LPS,8.8±1.0%
same,"effect on expression of inducible nitric oxide synthase of macrophage cells stimulated with LPS (in words, summary)",iNOS,significantly lowered
CCCC(=O)O[C@H]1[C@H](C(C)C)[C@@H]2[C@@H]([C@H]3C[C@](C)([S+](C)[O-])CCC[C@@](C)(OC(=O)CCC)[C@@H]2O3)[C@](C)(O)[C@@H]1OC(C)=O (stereo partly shown) [formula 3],levels of iNOS protein relative to control cells stimulated with LPS only,iNOS; RAW264.7 cells + LPS,17.8±4.7%
same,"effect on expression of inducible nitric oxide synthase of macrophage cells stimulated with LPS (in words, summary)",iNOS,significantly lowered
C=C1CC[C@@H](O)[C@]2(C)C[C@H](OC(C)=O)[C@@H]3[C@@H]([C@@H](C(C)C)CC[C@@]3(C)O)[C@H]12 [formula 16],IC50,[1],13.6 µg/mL
same,IC50,[2],16 µg/mL
same,IC50,[3],15.3 µg/mL
same,IC50,[4],12.5 µg/mL
same,IC50,[5],9.9 µg/mL
same,IC50,[6],9.6 µg/mL
CCCC(=O)O[C@]1(C)CC[C@H](OC(C)=O)[C@@](C)(O)C[C@H]2O[C@@H]1[C@@H]1[C@@H](C(C)C)[C@H](OC(C)=O)[C@@H](OC(C)=O)[C@@](C)(O)[C@@H]12 [formula 11],effect on COX-2 expression with LPS treatment (in words),"COX-2; 10 μM, RAW264.7 cells + LPS",enhance the expression
same,effect on expression of iNOS protein relative to control cells stimulated with LPS only (in words),"iNOS; 10 μM, RAW264.7 cells + LPS",enhance the expression
